According to patent US20110118462A1, “N-HETEROCYCLIC SUBSTITUENT-CONTAINING ANTIBIOTIC, PREPARATION AND USE THEREOF” (priority 2009, published 2011):

Key:
[1] = format: in vivo; details: for t1/2β: single intravenous administration (Ia 50 mg/kg·bw)
Description: The inventors conducted preliminary pharmacokinetic study of Compound Ia on Beagle dogs. The Beagle dogs were allowed to drink water freely but not to eat food for 16 hours before and 4 hours after the intravenous injection of 50 mg/kg·bw of the compound. Intravenous blood sampling took place at 0, 0.083, 0.17, 0.25, 0.5, 1, 1.5, 2, 3, 4, 6, 9, 12 hours, respectively, after the injection, each blood sample being 3 mL. Thereafter the dogs were given the drugs every other week and blood samples were taken according to the above manner. The blood samples were added to the centrifuge tubes containing heparin and thoroughly mixed by centrifuging at 4000 rpm for 10 minutes. The blood plasma was separated and an abstraction agent (methanol/ethyl acetate 3:2 V/V) was added to and mixed with it by centrifuging at 10000 rpm for 10 minutes. The top, clear liquid, 20 μL, was taken and analyzed by HPLC.

[2] = pH value of aqueous solution; format: physicochemical; details: for pH: concentration 0.1 g/mL
Description: The pH value of its saturated aqueous solution is 3.2.
At 5° C., sodium carbonate (0.1 g) was dissolved in deionized water (5 mL) in a three-neck flask. Compound II (1 g) was added to the flask with agitation (350 rpm) and the reaction was carried out for 45 minutes. The reaction mixture was discolored with activated carbon and then filtered. The filtration liquid was dropwise added to 80 mL of acetone to precipitate. The precipitation was monitored by an on-line particle analyzing instrument. The mixture was filtered and the solid was washed twice with acetone. Drying under vacuum at 40° C. for 24 hours gave 0.75 g of Compound Ia with a purity of 98.35% (HPLC) and pH 7.3 (concentration 0.1 g/mL).

[3] = Muscle stimulation test on rabbits; design: species or system New Zealand rabbits; details: rabbit, in vivo
Source text: The inventors have conducted the muscle stimulation test of Compounds Ia and II on rabbits. The test is as follows. Eight New Zealand rabbits were divided into three groups. Two groups, containing three rabbits per group, were administrated with Compound Ia and Compound II, respectively. The third group, containing two rabbits, was used as a negative control group. The rabbits were intramuscularly injected with high concentrations of the compounds into the left quadriceps and with low concentration into the right quadriceps. The negative control group was injected with an equal concentration of sodium chloride into the quadriceps of both sides. Each quadriceps was administrated with 1.0 mL once a day for three consecutive days. One or two rabbits from each group were anatomized after 48 hours of the injection. The remaining rabbits were anatomized after the end of the two-week recovery period.

Moraxella Catarrhalis [4] = assay: In-vivo antibacterial activity (protection of rats)
Pneumonia Chain Coccus [5] = assay: as above
Solubility = format: physicochemical
Source text: Its chemical name is 7-(α-((N,N-diisopropylamidino)thio)acetylamino)-3-(((1,2,5,6-tetrahydro-2-methyl-5,6-dioxo-1,2,4-triazin-3-yl)thio)methyl) cephalosporanic acid mono sodium salt (Compound Ia).

[6] = Acute toxicity tests on rats; format: in vivo; details: intravenous injection
Excrement Enterococcus [7] = assay: In-vivo antibacterial activity (protection of rats)
[8] = Stability in the solid state, storage at various temperatures; format: physicochemical
Source text: (§1) Compared to Compound II, Compound I has better stability in aqueous solution (see Table 2) and in the solid state (See Table 3). Thus Compound I can be stored without freezing or special treatment.

Type A Chain Coccus = assay: Vitro bacteriostasis experiment, two-fold agar dilution method; format: cell-based
Description: (§2) Vitro bacteriostasis experiments of Compounds Ia, Ib, and Ic were performed using the two-fold agar dilution method.

Haemophilus Influenzae = assay: as above; format: cell-based
Description: as §2

Shigella = assay: as above; format: cell-based
Description: as §2

Excrement Enterococcus [9] = assay: as above; format: cell-based
Description: as §2

Type B Chain Coccus = assay: as above; format: cell-based
Description: as §2

Moraxella Catarrhalis [10] = assay: as above; format: cell-based
Description: as §2

Pneumonia Chain Coccus [11] = assay: as above; format: cell-based
Description: as §2

[12] = Stability in aqueous injection solutions at 37° C.; format: physicochemical
Source text: as §1

[13] = healthy Beagle dogs, single intravenous administration 50 mg/kg·bw

Structure (SMILES) | t1/2β ([1]; healthy Beagle dogs) [min] | pH [2] | LD50 [6] [mg/kg] | MIC90 (Type A Chain Coccus) [µg/mL] | MIC90 (Haemophilus Influenzae) [µg/mL] | MIC90 (Shigella) [µg/mL] | MIC90 (Excrement Enterococcus [9]) [µg/mL] | MIC90 (Type B Chain Coccus) [µg/mL] | MIC90 (Moraxella Catarrhalis [10]) [µg/mL] | MIC90 (Pneumonia Chain Coccus [11]) [µg/mL] | content in aqueous injection solution ([12]; 0 hr) [%] | content in aqueous injection solution ([12]; 0.2 hr) [%] | content in aqueous injection solution ([12]; 1 hr) [%] | content in aqueous injection solution ([12]; 2 hr) [%] | content in aqueous injection solution ([12]; 3 hr) [%] | content in aqueous injection solution ([12]; 4 hr) [%] | further results
CC(C)N(C(=N)SCC(=O)NC1C(=O)N2C(C(=O)[O-])=C(CSc3nc(=O)c(=O)[nH]n3C)CSC12)C(C)C.[Na+] (stereo not drawn) [Compound Ia, 7-(α-((N,N-diisopropylamidino)thio)acetylamino)-3-(((1,2,5,6-tetrahydro-2-methyl-5,6-dioxo-1,2,4-triazin-3-yl)thio)methyl) cephalosporanic acid mono sodium salt] | 155 ± 2.4 | 7.3 | 1747.6 | 0.5 | 0.5 | 4 | 8 | 0.0625 | 1 | 0.125 | 98.60 | 98.60 | 97.98 | 97.79 | 97.24 | 97.13 | AUC [1, 13]: 108.29 ± 18.17 µg·h/mL; CIB [1, 13]: 783 ± 1.5 mL/min/kg; V1 [1, 13]: 0.25 ± 0.07 L/kg; VB [1, 13]: 1.61 ± 0.30 L/kg; t1/2α [1, 13]: 37.8 ± 7.2 min; Cmax ([1]; healthy Beagle dogs, single intravenous administration 50 mg/kg·bw, plasma): 116.35 ± 12.06 µg/mL; drug concentration after 12 hours of the administration ([1]; healthy Beagle dogs, single intravenous administration 50 mg/kg·bw, plasma, 12 hours): 0.39 ± 0.09 µg/mL; pH value ([2]; concentration not given): 7.3; muscle irritation observed [3]: slight irritation; protection for rats against Moraxella Catarrhalis (Moraxella Catarrhalis [4]): excellent protection; protection for rats against Pneumonia Chain Coccus (Pneumonia Chain Coccus [5]): excellent protection; solubility in acetone (Solubility): not readily soluble; solubility in anhydrous ethanol (Solubility): not readily soluble; solubility in methanol (Solubility): readily soluble; solubility in water (Solubility): readily soluble; protection for rats against Excrement Enterococcus (Excrement Enterococcus [7]): excellent protection; content after 72 hours in storage ([8]; 10° C.): 96.9%; content after 72 hours in storage ([8]; 40° C.): 96.6%; content after 72 hours in storage ([8]; 60° C.): 96.4%; content after 72 hours in storage ([8]; −5° C.): 97.0%
CC(C)N=C(NC(C)C)SCC(=O)NC1C(=O)N2C(C(=O)[O-])=C(CSc3nc(=O)c(=O)[nH]n3C)CSC12.CC(C)N=C(NC(C)C)SCC(=O)NC1C(=O)N2C(C(=O)[O-])=C(CSc3nc(=O)c(=O)[nH]n3C)CSC12.[Na+].[Na+] (stereo not drawn) [Compound Ib, disodium 7-(α-((N,N′-diisopropylamidino)thio)acetylamino)-3-(((1,2,5,6-tetrahydro-2-methyl-5,6-dioxo-1,2,4-triazin-3-yl)thio)methyl) cephalosporanate] |  | 10.02 |  | 0.1 | 0.5 | 4 | 4 | 0.0125 | 0.5 | 0.5 | 98.80 | 98.54 | 97.14 | 96.66 | 95.21 | 94.30 | 
CC(C)N(C(=N)SCC(=O)NC1C(=O)N2C(C(=O)[O-])=C(CSc3nc(=O)c(=O)[nH]n3C)CSC12)C(C)C.[K+] (stereo not drawn) [Compound Ic, 7-(α-((N,N-diisopropylamidino)thio)acetylamino)-3-(((1,2,5,6-tetrahydro-2-methyl-5,6-dioxo-1,2,4-triazin-3-yl)thio)methyl) cephalosporanic acid monopotassium salt] |  |  |  | 0.1 | 0.5 | 4 | 8 | 0.0156 | 0.5 | 0.5 |  |  |  |  |  |  | 
CC(=O)OCC1=C(C(=O)O)N2C(=O)[C@@H](NC(=O)CSC(=NC(C)C)NC(C)C)[C@H]2SC1 [cefathiamidine, reference compound] | 39 ± 1.8 |  | 824.2 |  |  |  |  |  |  |  |  |  |  |  |  |  | biological half-life in blood ([1]; Beagle dogs, preliminary pharmacokinetic study): 0.65 hours
